Measured values taken from ChEMBL document CHEMBL4680157, “Design, synthesis and biological evaluation of novel TRβ selective agonists sustained by ADME-toxicity analysis” (Eur J Med Chem, 2020).
The source made the active and inactive calls. No cut-off for these calls is given here.

Assays:
[1] = Cytotoxicity against human MCF7 cells assessed as cell growth inhibition at 10 uM after 24 hrs relative to control; type: cell-based
SIRT7 = target: T1, SIRT7 (Homo sapiens, UniProt Q9NRC8); experiment: Inhibition of SIRT7 (unknown origin) at 10 uM relative to control
T1 sequence (Q9NRC8 whole entry): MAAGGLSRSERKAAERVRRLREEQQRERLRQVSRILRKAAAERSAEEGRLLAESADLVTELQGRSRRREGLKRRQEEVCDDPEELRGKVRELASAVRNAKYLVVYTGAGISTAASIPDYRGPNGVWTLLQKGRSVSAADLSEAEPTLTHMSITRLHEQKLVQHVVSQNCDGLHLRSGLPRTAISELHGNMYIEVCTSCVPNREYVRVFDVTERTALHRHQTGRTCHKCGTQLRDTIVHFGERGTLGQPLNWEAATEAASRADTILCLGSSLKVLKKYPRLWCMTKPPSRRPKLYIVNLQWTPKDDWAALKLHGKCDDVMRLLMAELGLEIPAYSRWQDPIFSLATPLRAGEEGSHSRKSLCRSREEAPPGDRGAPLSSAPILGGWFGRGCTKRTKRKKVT

HDAC9 = HDAC9 (Homo sapiens, UniProt Q9UKV0); experiment: Inhibition of HDAC9 (unknown origin) at 10 uM relative to control
HDAC9, sequence (Q9UKV0 whole entry): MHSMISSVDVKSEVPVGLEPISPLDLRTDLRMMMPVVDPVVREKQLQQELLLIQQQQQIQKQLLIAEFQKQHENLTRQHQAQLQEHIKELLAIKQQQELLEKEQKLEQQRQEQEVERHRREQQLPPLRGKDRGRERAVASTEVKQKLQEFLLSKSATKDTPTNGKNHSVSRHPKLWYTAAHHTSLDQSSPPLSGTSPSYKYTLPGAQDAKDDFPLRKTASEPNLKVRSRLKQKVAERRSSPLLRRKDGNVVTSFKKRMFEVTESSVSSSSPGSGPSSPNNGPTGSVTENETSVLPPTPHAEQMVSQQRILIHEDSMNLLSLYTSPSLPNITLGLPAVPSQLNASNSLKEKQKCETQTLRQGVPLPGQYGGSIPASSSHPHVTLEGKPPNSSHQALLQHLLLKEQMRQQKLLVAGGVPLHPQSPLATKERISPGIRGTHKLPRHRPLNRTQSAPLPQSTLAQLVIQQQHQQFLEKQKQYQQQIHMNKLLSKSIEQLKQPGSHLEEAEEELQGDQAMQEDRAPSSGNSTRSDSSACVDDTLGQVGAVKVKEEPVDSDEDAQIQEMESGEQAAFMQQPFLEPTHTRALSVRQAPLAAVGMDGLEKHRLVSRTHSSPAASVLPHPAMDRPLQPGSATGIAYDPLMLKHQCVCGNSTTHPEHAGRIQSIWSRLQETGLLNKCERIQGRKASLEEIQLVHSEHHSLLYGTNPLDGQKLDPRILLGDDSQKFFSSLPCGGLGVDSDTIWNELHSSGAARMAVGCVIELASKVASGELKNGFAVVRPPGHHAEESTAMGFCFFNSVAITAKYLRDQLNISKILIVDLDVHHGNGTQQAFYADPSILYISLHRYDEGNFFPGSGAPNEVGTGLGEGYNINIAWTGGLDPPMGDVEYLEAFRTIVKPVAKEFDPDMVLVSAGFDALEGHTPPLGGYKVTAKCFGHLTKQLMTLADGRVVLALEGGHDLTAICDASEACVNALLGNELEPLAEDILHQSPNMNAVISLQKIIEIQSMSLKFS

[2] = target: 3',5'-cyclic-AMP phosphodiesterase 4C (Homo sapiens) (UniProt Q08493); experiment: Inhibition of PDE4C1 (unknown origin) at 10 uM relative to control
3',5'-cyclic-AMP phosphodiesterase 4C (Homo sapiens), sequence (Q08493 whole entry): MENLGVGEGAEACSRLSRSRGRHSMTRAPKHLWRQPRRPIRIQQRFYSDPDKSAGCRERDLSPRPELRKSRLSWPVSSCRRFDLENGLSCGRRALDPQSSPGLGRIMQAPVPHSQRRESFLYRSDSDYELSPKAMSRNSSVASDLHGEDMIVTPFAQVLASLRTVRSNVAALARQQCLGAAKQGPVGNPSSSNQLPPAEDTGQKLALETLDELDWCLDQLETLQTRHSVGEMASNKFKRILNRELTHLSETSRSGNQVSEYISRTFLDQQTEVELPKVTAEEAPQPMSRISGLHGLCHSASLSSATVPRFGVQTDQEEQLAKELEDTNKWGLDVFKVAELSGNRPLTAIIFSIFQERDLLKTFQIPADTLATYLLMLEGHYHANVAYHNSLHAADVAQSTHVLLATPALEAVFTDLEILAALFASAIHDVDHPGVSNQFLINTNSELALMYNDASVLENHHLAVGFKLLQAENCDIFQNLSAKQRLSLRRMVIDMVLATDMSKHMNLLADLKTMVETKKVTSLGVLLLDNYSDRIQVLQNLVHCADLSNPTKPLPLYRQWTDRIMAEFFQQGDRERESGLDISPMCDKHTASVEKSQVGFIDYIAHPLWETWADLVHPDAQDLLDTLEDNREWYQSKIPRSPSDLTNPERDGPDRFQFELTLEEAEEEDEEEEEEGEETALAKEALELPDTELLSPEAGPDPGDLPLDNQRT

HepG2 = experiment: Induction of lipolysis in human HepG2 cells assessed as reduction in intracellular lipid accumulation at 1 to 10 uM incubated for 24 hrs by Oil Red O staining based spectrophotometric analysis; type: functional, cell-based; settings: dose 1-10 µM
[3] = target: T2, AMP-activated protein kinase, AMPK (Homo sapiens) (UniProt P54646+O43741+P54619+Q9UGJ0+Q9Y478+Q13131+Q9UGI9); experiment: Activation of AMPK in human HepG2 cells assessed as ratio of phosphorylated AMPK at 10 uM measured after 24 hrs by Western blot analysis; type: cell-based; settings: filed as activator
[4] = target: T2, AMP-activated protein kinase, AMPK (Homo sapiens); experiment: Activation of AMPK in human HepG2 cells assessed as ratio of phosphorylated ACC at 10 uM measured after 24 hrs by Western blot analysis; type: cell-based; settings: filed as activator
[5] = Toxicity in F344 rat assessed as increase in heart weight at 50 to 100 ug per 100 g body weight, ig administered daily for 3 days; settings: in vivo, po, 72 h, dose 50-100 µg, time 3 day
[6] = Toxicity in F344 rat assessed as increase in heart and body weight ratio at 50 to 100 ug per 100 g body weight, ig administered daily for 3 days; settings: in vivo, po, 72 h, dose 50-100 µg, time 3 day
[7] = Toxicity in F344 rat assessed as effect on serum AST/GOT level at 50 ug per 100 g of body weight, ig administered daily for 3 days (reference value: 153 +/- 11 U/L); settings: in vivo, po, 72 h, dose 50 µg, time 3 day
[8] = Toxicity in F344 rat assessed as effect on serum AST/GOT level at 75 ug per 100 g of body weight, ig administered daily for 3 days (reference value: 153 +/- 11 U/L); settings: in vivo, po, 72 h, dose 75 µg, time 3 day
[9] = Toxicity in F344 rat assessed as effect on serum AST/GOT level at 100 ug per 100 g body weight, ig administered daily for 3 days (reference value: 153 +/- 11 U/L); settings: in vivo, po, 72 h, dose 100 µg, time 3 day
[10] = Toxicity in F344 rat assessed as effect on serum AST/GOT level at 75 ug per 100 g body weight, ip administered daily for 3 days (reference value: 153 +/- 11 U/L); type: organism-based; settings: in vivo, 72 h, dose 75 µg, time 3 day
[11] = Toxicity in F344 rat assessed as effect on serum ALT/GPT level at 50 ug per 100 g body weight, ig administered daily for 3 days (reference value: 46 +/- 4 U/L); settings: in vivo, po, 72 h, dose 50 µg, time 3 day
[12] = Toxicity in F344 rat assessed as effect on serum ALT/GPT level at 75 ug per 100 g body weight, ig administered daily for 3 days (reference value: 46 +/- 4 U/L); settings: in vivo, po, 72 h, dose 75 µg, time 3 day
[13] = Toxicity in F344 rat assessed as effect on serum ALT/GPT level at 100 ug per 100 g body weight, ig administered daily for 3 days (reference value: 46 +/- 4 U/L); settings: in vivo, po, 72 h, dose 100 µg, time 3 day
[14] = Toxicity in F344 rat assessed as effect on serum bilirubin level at 75 ug per 100 g body weight, ig administered daily for 3 days (reference value: 1.4 +/- 0.2 mg/dl); settings: in vivo, po, 72 h, dose 75 µg, time 3 day
[15] = Toxicity in F344 rat assessed as effect on serum bilirubin level at 100 ug per 100 g body weight, ig administered daily for 3 days (reference value: 1.4 +/- 0.2 mg/dl); settings: in vivo, po, 72 h, dose 100 µg, time 3 day
[16] = Toxicity in F344 rat assessed as effect on serum bilirubin level at 75 ug per 100 g body weight, ip administered daily for 3 days (reference value: 1.4 +/- 0.2 mg/dl); type: organism-based; settings: in vivo, 72 h, dose 75 µg, time 3 day
[17] = Toxicity in F344 rat assessed as effect on serum glucose level at 50 ug per 100 g body weight, ig administered daily for 3 days (reference value: 151 +/- 13.5 mg/dl); settings: in vivo, po, 72 h, dose 50 µg, time 3 day
[18] = Toxicity in F344 rat assessed as effect on serum glucose level at 75 ug per 100 g body weight, ig administered daily for 3 days (reference value: 151 +/- 13.5 mg/dl); settings: in vivo, po, 72 h, dose 75 µg, time 3 day
[19] = Toxicity in F344 rat assessed as effect on serum glucose level at 100 ug per 100 g body weight, ig administered daily for 3 days (reference value: 151 +/- 13.5 mg/dl); settings: in vivo, po, 72 h, dose 100 µg, time 3 day
[20] = Toxicity in F344 rat assessed as effect on serum cholesterol level at 50 ug per 100 g body weight, ig administered daily for 3 days (reference value: 67.2 +/- 2.5 mg/dl); settings: in vivo, po, 72 h, dose 50 µg, time 3 day
[21] = Toxicity in F344 rat assessed as effect on serum cholesterol level at 75 ug per 100 g body weight, ig administered daily for 3 days (reference value: 67.2 +/- 2.5 mg/dl); settings: in vivo, po, 72 h, dose 75 µg, time 3 day
[22] = Toxicity in F344 rat assessed as effect on serum cholesterol level at 100 ug per 100 g body weight, ig administered daily for 3 days (reference value: 67.2 +/- 2.5 mg/dl); settings: in vivo, po, 72 h, dose 100 µg, time 3 day
[23] = Toxicity in F344 rat assessed as effect on serum triglycerides level at 50 ug per 100 g body weight, ig administered daily for 3 days (reference value: 86.8 +/- 10.4 mg/dl); settings: in vivo, po, 72 h, dose 50 µg, time 3 day
[24] = Toxicity in F344 rat assessed as effect on serum triglycerides level at 75 ug per 100 g body weight, ig administered daily for 3 days (reference value: 86.8 +/- 10.4 mg/dl); settings: in vivo, po, 72 h, dose 75 µg, time 3 day
[25] = Toxicity in F344 rat assessed as effect on serum triglycerides level at 75 ug per 100 g body weight, ip administered daily for 3 days (reference value: 86.8 +/- 10.4 mg/dl); type: organism-based; settings: in vivo, 72 h, dose 75 µg, time 3 day

Row | SMILES | inhibition at 24 h, 10 µM [1] [%] | inhibition at 10 µM (SIRT7) [%] | inhibition at 10 µM (HDAC9) [%] | inhibition [2] [%] | Activity (HepG2) | Activity [3] | Activity [4] | Activity [5] | Activity [6] | Activity [7] [U/L] | Activity [8] [U/L] | Activity [9] [U/L] | Activity [10] [U/L] | Activity [11] [U/L] | Activity [12] [U/L] | Activity [13] [U/L] | Activity [14] [mg/dL] | Activity [15] [mg/dL] | Activity [16] [mg/dL] | Activity [17] [mg/dL] | also measured
1 | CC(=O)Nc1ccc(Cc2c(C)cc(OCC(=O)O)cc2C)cc1C(C)C | < 50 | < 50 | < 50 | < 50 | Active | Active | Active | Non-Toxic | Non-Toxic | 141 | 133 | 108 | 134 | 46 | 46 | 37 | 0.9 | 1.1 | 1.5 | 129 | Activity [18]: 132 mg/dL; Activity [19]: 164 mg/dL; Activity [20]: 68 mg/dL; Activity [21]: 71.4 mg/dL; Activity [22]: 67.6 mg/dL; Activity [23]: 70.4 mg/dL; Activity [24]: 67 mg/dL; Activity [25]: 74.2 mg/dL
2 | Cc1cc(OCC(=O)O)cc(C)c1Cc1ccc(N)c(C(C)C)c1 | < 50 | < 50 | < 50 | < 50 | Active | Active | Active | Non-Toxic | Non-Toxic | 134 | 119 | 102 | 123 | 41 | 43 | 42 | 1.6 | 1 | 1.1 | 136 | Activity [18]: 153 mg/dL; Activity [19]: 166 mg/dL; Activity [20]: 69.5 mg/dL; Activity [21]: 68.6 mg/dL; Activity [22]: 70.1 mg/dL; Activity [23]: 68.3 mg/dL; Activity [24]: 74 mg/dL; Activity [25]: 79.6 mg/dL
3 | Cc1cc(OCC(=O)O)cc(C)c1Cc1ccc(O)cc1 | < 50 | < 50 | < 50 | < 50 |  |  |  |  |  |  |  |  |  |  |  |  |  |  |  |  | 
